One data set concerns influenza virus (H1N1). The experiment in a line: organism not typed. The format is cell-based, Influenza A virus.
The test system of the next data set is influenza virus (H3N2). The data set is described as follows: organism not typed. The format is cell-based, Influenza A virus. The conditions noted are these: for EC50: read-out: H3N2 EC50.
The test system of data set [1] is Influenza A/WSN/33 (H1N1). The data set is described as follows: microbe, parasite or virus in culture. The format is cell-based, Influenza A virus. The conditions noted are these: for EC50: read-out: H1N1 WSN EC50.
In another data set the test system is H1N1 WSN viral strain. More on the design: species or system BALB/c mice. To be noted: mouse, in vivo, po.

The term EC50 denotes the concentration at which the effect is half-maximal.

Converted amounts (≈) assume the structure as drawn. Structures can show the parent of a compound that is named as a salt. Where two headings read alike, the source gives them in different places.

`COc1c(C)c2c(c(O)c1C/C=C(\C)CCC(=O)OCCN1CCOCC1)C(=O)OC2` [MPM, 2-morpholinoethyl(E)-6-(1,3-dihydro-4-hydroxy-6-methoxy-7-methyl-3-oxo-5-isobenzofuranyl)-4-methyl-4-hexenoate]: the toxicity to cells entry with MDCK cells is “nontoxic to cells”. Besides, in the data set with influenza virus (H1N1), the “survival rate in MDCK cells” value came out at 75%. Also, the MIC in the data set with influenza virus (H1N1) (read-out: Minimal Inhibitory Concentration (MIC), H1N1) was found to be 0.195 µg/mL (≈ 0.45 µM); in the data set on influenza virus (H3N2) (read-out: Minimal Inhibitory Concentration (MIC), H3N2), 1.56 µg/mL (≈ 3.6 µM); in data set [1] (Influenza A virus, read-out: Minimal Inhibitory Concentration (MIC), WSN), 0.097 µg/mL (≈ 0.224 µM). The EC50 in the data set on influenza virus (H3N2) turned out to be 1.56 µg/mL (≈ 3.6 µM); in data set [1] (Influenza A virus), 0.098 µg/mL (≈ 0.226 µM). For the same compound, the “antiviral activity against WSN influenza virus” value in data set [1] was “active”. Further, the “cell survival (MTT), D + V” value in data set [1] is on record as “++++ (key: 0˜25% cell survival is recorded as +/−; 25˜50% cell survival is recorded as +; 50˜75% cell survival is recorded as ++; 75˜100% cell survival is recorded as +++; >100% cell survival is recorded as ++++)”.

For the compound `CCOC(=O)C1=C[C@@H](OC(CC)CC)[C@H](NC(C)=O)[C@@H](N)C1` [Tamiflu], the entries for the “survival rate of mice” value in the data set on H1N1 WSN viral strain and in the data set with H1N1 WSN viral strain (0.1 mg/kg) were 100% and 46.7%, respectively.

With `COc1c(C)c2c(c(O)c1C/C=C(\C)CCC(=O)OCCN1CCOCC1)C(=O)OC2` [MPM-N, mycophenolate mofetil hydrochloride], the “survival rate of mice” value in the data set with H1N1 WSN viral strain amounted to 23.3%. Besides, the “Minimal Inhibitory Concentration (MIC), WSN” value in data set [1] (hydrochloride) stood at 0.0488 µg/mL.

As for `NC(=O)c1ncn([C@@H]2O[C@H](CO)[C@@H](O)[C@H]2O)n1` [Ribavirin, reference compound], the EC50 worked out at 12.5 µg/mL (≈ 51.2 µM) in the data set with influenza virus (H3N2) and 3.12 µg/mL (≈ 12.8 µM) in data set [1] (Influenza A virus).

(Values after patent US10221152B2 (priority 2013, dated 2019).)
